The results in this text go back to ChEMBL document CHEMBL2074047, “Functional characterization of mouse cation transporter mOCT2 compared with mOCT1” (Biochem Biophys Res Commun, 2002).

The target of data set [1] is T1, Solute carrier family 22 member 1 (Mus musculus, UniProt O08966).
T1 sequence (O08966 whole entry): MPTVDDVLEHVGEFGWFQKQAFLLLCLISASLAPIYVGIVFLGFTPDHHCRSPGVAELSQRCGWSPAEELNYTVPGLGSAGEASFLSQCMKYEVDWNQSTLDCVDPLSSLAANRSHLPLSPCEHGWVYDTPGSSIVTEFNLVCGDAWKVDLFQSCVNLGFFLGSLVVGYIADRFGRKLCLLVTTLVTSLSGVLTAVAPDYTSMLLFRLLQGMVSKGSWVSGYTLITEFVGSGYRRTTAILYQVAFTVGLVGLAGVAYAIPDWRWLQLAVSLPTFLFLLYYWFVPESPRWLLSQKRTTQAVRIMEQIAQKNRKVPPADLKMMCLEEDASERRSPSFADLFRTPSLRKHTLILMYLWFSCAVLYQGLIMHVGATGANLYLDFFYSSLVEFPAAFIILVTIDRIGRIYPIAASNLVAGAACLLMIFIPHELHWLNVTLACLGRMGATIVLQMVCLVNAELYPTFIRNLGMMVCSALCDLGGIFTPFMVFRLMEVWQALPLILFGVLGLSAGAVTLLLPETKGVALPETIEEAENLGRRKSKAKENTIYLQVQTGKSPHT
As to the kind of experiment: (§1) TP_TRANSPORTER: inhibition of MPP+ uptake (MPP+: 1 uM) in Xenopus laevis oocytes. It is filed as functional, cell-based, Oocyte.

The target in data set [2] is T2, Solute carrier family 22 member 2 (Mus musculus, UniProt O70577).
T2 sequence (O70577 whole entry): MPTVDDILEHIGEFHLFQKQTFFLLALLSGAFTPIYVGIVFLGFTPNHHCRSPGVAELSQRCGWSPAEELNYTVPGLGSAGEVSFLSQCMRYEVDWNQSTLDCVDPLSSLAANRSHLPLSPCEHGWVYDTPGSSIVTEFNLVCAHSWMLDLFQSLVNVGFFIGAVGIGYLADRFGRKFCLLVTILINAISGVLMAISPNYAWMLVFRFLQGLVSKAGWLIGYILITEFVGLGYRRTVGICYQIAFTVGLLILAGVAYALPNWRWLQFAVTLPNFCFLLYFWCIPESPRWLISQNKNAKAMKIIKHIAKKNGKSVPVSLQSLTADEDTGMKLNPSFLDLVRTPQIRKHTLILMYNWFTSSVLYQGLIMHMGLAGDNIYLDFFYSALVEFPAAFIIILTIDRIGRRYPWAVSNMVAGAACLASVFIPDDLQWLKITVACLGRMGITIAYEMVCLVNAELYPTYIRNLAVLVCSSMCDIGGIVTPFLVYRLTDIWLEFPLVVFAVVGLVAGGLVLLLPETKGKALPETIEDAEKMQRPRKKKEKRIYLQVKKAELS
The description is as §1. Type of data set: functional, cell-based, Oocyte.

Substrate in data set [3]: C[n+]1ccc(-c2ccccc2)cc1
Nature of the data set: TP_TRANSPORTER: uptake in Xenopus laevis oocytes. It is filed as functional, cell-based, Oocyte.

Substrate in data set [4]: CC[N+](CC)(CC)CC
Nature of the data set: cells, lysate or membranes named.

Usually IC50 stands for the concentration that inhibits the measured activity by half. A lower IC50 goes with greater potency. Regarding `C[N+](C)(C)CCO` [CHOLINE], the IC50 in data set [1] amounted to 55 µM; in data set [2], 217 µM.
Taken in the same sequence, the figures for `CN/C(=N/CCSCc1nc[nH]c1C)NC#N` [CIMETIDINE] were 0.59 µM and 8 µM.
`CNC(=O)c1cccnc1` [NICOTINYL METHYLAMIDE]: the IC50 in data set [1] amounted to 7340 µM; in data set [2], 13700 µM.
Consider `CCN(CC)CCNC(=O)c1ccc(N)cc1` [PROCAINAMIDE], for which the IC50 in data set [1] turned out to be 3.9 µM; in data set [2], 312 µM.
Turning to `C=C[C@H]1C[N@@]2CC[C@H]1C[C@H]2[C@H](O)c1ccnc2ccc(OC)cc12` [QUININE], the IC50 in data set [2] is 2.8 µM.
With `CC[N+](CC)(CC)CC` [TETRYLAMMONIUM], the values for the IC50 in data set [1] and in data set [2] were 0.54 µM and 3.5 µM, respectively.

B1: Solute carrier family 22 member 2 (Mus musculus) (protein)
chain: T2 sequence (O70577 whole entry)
One may read the Km as the substrate concentration at which the rate is half of its maximum. As to B1, the Km turned out to be 24 µM in data set [3] and 35.7 µM in data set [4].

B2: Solute carrier family 22 member 1 (Mus musculus) (protein)
chain: T1 sequence (O08966 whole entry)
Consider B2, for which the Michaelis-Menten constant (Km) in data set [3] was 10 µM.
